Literature values as cited in PMC3124134 (Bioorganic & medicinal chemistry, 2010).

Legend:
ODCase = settings: read-out: inhibition constant (Ki); competitive inhibition of ODCase
Sc ODCase = settings: S. cerevisiae ODCase; in words

COC(=O)C1=C(C)NC(C)=C(C(=O)OC)C1c1ccccc1[N+](=O)[O-] [nifedipine]
Ki (ODCase): 105 µM

NC(=O)c1[nH]nc([C@@H]2O[C@H](COP(=O)(O)O)[C@@H](O)[C@H]2O)c1O [compound 8, 4-Hydroxy-5-(5-O-monophosphoryl-β-D-ribofuranos-1-yl)-1H-pyrazole-3-carboxamide]
inhibition constants (Sc ODCase): low nanomolar range
